Experimental data from patent US11524966B1 (Valo Early Discovery, Inc., priority 2017, dated 2022).

Target: T1, USP28 (His-tagged USP28-FL-mammalian) (Homo sapiens, UniProt Q96RU2)
T1 construct: Expression of USP28 (1-1077)-TEV-6*His (pTT5 vector); made in house; host or cells: Expi293f cells (pTT5 vector)
T1 sequence (Q96RU2 1-1077): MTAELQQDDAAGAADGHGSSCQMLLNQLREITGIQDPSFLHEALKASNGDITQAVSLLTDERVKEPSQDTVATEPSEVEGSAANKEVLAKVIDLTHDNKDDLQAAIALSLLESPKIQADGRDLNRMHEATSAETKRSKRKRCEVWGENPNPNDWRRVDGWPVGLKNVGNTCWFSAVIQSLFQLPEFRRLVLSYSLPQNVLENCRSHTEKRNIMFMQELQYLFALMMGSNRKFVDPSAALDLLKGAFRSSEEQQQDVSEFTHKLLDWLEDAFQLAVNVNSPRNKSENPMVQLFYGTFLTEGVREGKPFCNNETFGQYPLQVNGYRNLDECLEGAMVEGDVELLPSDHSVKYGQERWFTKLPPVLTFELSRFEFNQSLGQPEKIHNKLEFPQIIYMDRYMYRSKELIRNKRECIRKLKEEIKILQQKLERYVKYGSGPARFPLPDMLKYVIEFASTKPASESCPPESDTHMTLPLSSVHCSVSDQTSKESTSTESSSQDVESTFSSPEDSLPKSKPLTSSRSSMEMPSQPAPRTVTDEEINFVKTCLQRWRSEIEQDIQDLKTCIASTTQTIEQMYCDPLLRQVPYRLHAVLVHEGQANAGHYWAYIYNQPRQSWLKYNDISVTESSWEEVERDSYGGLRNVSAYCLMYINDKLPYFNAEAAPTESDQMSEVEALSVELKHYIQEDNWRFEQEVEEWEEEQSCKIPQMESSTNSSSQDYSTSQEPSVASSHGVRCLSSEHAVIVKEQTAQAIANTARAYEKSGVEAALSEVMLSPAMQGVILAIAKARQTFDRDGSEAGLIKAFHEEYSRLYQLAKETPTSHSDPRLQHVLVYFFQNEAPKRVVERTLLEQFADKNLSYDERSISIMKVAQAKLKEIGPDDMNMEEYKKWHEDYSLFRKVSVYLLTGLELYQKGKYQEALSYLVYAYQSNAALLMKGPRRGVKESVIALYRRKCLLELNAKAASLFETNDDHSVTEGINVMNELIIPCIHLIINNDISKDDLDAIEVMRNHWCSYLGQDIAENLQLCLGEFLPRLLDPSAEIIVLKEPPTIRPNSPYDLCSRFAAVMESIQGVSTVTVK
Assay: Ubiquitin-Rhodamine 110 Assay for USP28 Activity, Example A-1(a)
Type: biochemical
Details: Ubiquitin-Rhodamine 110 assay, Example A-1(a); read-out: USP28 A-1(a) IC50 range
Summary of the method: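 Full-length His-tagged USP28 (1-1077, Expi293F-expressed; […]) was preincubated 30 min with compound (25 μM–1.3 nM, 10-point 3-fold) in 20 mM Tris-HCl pH 8.0, 3 mM BME, 0.03% BGG, 0.01% Triton X-100. Ub-Rh110 (25 nM) was then added for 45 min at room temperature, stopped with citric acid, and read by fluorescence (485/535 nm).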

Compound | IC50 [nM]
Cc1ccc2c(N)c(C(=O)N[C@H]3COc4cc(N5C6CNCC5COC6)ccc4C3)sc2n1 [Example 209, 3-amino-6-methyl-N-[(3R)-7-{3-oxa-7,9-diazabicyclo[3.3.1]nonan-9-yl}-3,4-dihydro-2H-1-benzopyran-3-yl]thieno[2,3-b]pyridine-2-carboxamide] | 1 to 50
N#Cc1c(N2CC3CCC(C2)N3)cc(F)c2c1CC[C@@H](NC(=O)c1cnc3c(c1)[C@H]1C[C@H]1CN3)C2 [Example 198, (6aR,7aS)-N-[(2R)-5-cyano-6-{3,8-diazabicyclo[3.2.1]octan-3-yl}-8-fluoro-1,2,3,4-tetrahydronaphthalen-2-yl]-5H,6H,6aH,7H,7aH-cyclopropa[c]1,8-naphthyridine-2-carboxamide] | 200 to 2000
CO[C@H]1CN(c2ccc3c(c2)CC[C@H](NC(=O)c2cnc4c(c2)[C@H]2C[C@H]2CN4)C3)C[C@@H]1N [Example 190, (6aR,7aS)-N-[(2S)-6-[(3S,4S)-3-amino-4-methoxypyrrolidin-1-yl]-1,2,3,4-tetrahydronaphthalen-2-yl]-5H,6H,6aH,7H,7aH-cyclopropa[c]1,8-naphthyridine-2-carboxamide] | > 2000
CO[C@H]1CN(c2ccc3c(n2)OC[C@H](NC(=O)c2sc4nc(C)cnc4c2N)C3)C[C@@H]1N [Example 181, 7-amino-N-[(3R)-7-[(3S,4S)-3-amino-4-methoxypyrrolidin-1-yl]-2H,3H,4H-pyrano[2,3-b]pyridin-3-yl]-3-methylthieno[2,3-b]pyrazine-6-carboxamide] | 200 to 2000
Cc1cc(C)c2c(N)c(C(=O)N[C@H]3CCc4nc(N5CC[C@H]6CNC[C@H]65)ccc4C3)sc2n1 [Example 218, N-[(6S)-2-[(3aS 6aS)-octahydropyrrolo[2,3-c]pyrrol-1-yl]-5,6,7,8-tetrahydroquinolin-6-yl]-3-amino-4,6-dimethylthieno[2,3-b]pyridine-2-carboxamide] | 50 to 200
O=C(N[C@@H]1CCc2cc(N3CC4CCC(C3)N4)cc(F)c2C1)c1cnc2c(c1)[C@@H]1C[C@@H]1CN2 [Example 193, (6aS,7aR)-N-[(2R)-6-{3,8-diazabicyclo[3.2.1]octan-3-yl}-8-fluoro-1,2,3,4-tetrahydronaphthalen-2-yl]-5H,6H,6aH,7H,7aH-cyclopropa[c]1,8-naphthyridine-2-carboxamide] | 200 to 2000
Cc1cc(C)c2c(N)c(C(=O)N[C@H]3COc4cc(N5CC[C@H]6CNC[C@H]65)cc(F)c4C3)sc2n1 (single isomer, unassigned) [Example 222] | 1 to 50
CO[C@@]1(C)CN(c2ccc3c(n2)CC[C@H](NC(=O)c2sc4nc(C)ccc4c2N)C3)C[C@@H]1N [Example 210, 3-amino-N-[(6S)-2-[(3S,4S)-4-amino-3-methoxy-3-methylpyrrolidin-1-yl]-5,6,7,8-tetrahydroquinolin-6-yl]-6-methylthieno[2,3-b]pyridine-2-carboxamide] | 50 to 200
Cc1ccc2c(N)c(C(=O)N[C@H]3COc4cc(N5CC[C@H]6CNC[C@H]65)cc(F)c4C3)sc2n1 [Example 220, N-[(3R)-7-[(3aS,6aS)-octahydropyrrolo[2,3-c]pyrrol-1-yl]-5-fluoro-3,4-dihydro-2H-1-benzopyran-3-yl]-3-amino-6-methylthieno[2,3-b]pyridine-2-carboxamide] | 1 to 50
Cc1ccc2c(N)c(C(=O)N[C@H]3COc4cc(N5C[C@H](OC(C)C)[C@@H](N)C5)ccc4C3)sc2n1 [Example 202, 3-amino-N-[(3R)-7-[(3S,4S)-3-amino-4-(propan-2-yloxy)pyrrolidin-1-yl]-3,4-dihydro-2H-1-benzopyran-3-yl]6-methylthieno[2,3-b]pyridine-2-carboxamide] | 1 to 50
CO[C@H]1CN(c2ccc3c(c2)CC[C@H](NC(=O)c2cnc4c(c2)C2CC2CN4)C3)C[C@@H]1N (stereo partly drawn) [Example 188, N-[(2S)-6-[(3S,4S)-3-amino-4-methoxypyrrolidin-1-yl]-1,2,3,4-tetrahydronaphthalen-2-yl]-5H,6H,6aH,7H,7aH-cyclopropa[c]1,8-naphthyridine-2-carboxamide] | 200 to 2000
Cc1ccc2c(N)c(C(=O)N[C@H]3COc4cc(N5C[C@@H](N)CC[C@H]5C(F)(F)F)ccc4C3)sc2n1 [Example 245, 3-amino-N-[(3R)-7-[(2S,5S)-5-amino-2-(trifluoromethyl)piperidin-1-yl]-3,4-dihydro-2H-1-benzopyran-3-yl]-6-methylthieno[2,3-b]pyridine-2-carboxamide] | 1 to 50
Cc1ccc2c(N)c(C(=O)N[C@H]3COc4cc(N5CCC[C@@H]6CNC[C@@H]65)ccc4C3)sc2n1 [Example 242, N-[(3R)-7-[(4aR,7aR)-octahydro-1H-pyrrolo[3,4-b]pyridin-1-yl]-3 ,4-dihydro-2H-1-benzopyran-3-yl]-3-amino-6-methylthieno[2,3-b]pyridine-2-carboxamide] | 1 to 50
Cc1cc(C)c2c(N)c(C(=O)N[C@H]3COc4cc(N5CC[C@@H]6CNC[C@@H]65)ccc4C3)sc2n1 [Example 227, N-[(3R)-7-[(3aR,6aR)-octahydropyrrolo[2,3-c]pyrrol-1-yl]-3,4-dihydro-2H-1-benzopyran-3-yl]-3-amino-4,6-dimethylthieno[2,3-b]pyridine-2-carboxamide] | 1 to 50
Cc1cc(C)c2c(N)c(C(=O)N[C@H]3CCc4nc(N5CC[C@@H]6CNC[C@@H]65)ccc4C3)sc2n1 [Example 219, N-[(6S)-2-[(3aR,6aR)-octahydropyrrolo[2,3-c]pyrrol-1-yl]-5,6,7,8-tetrahydroquinolin-6-yl]-3-amino-4,6-dimethylthieno[2,3-b]pyridine-2-carboxamide] | 1 to 50
Cc1ccc2c(N)c(C(=O)N[C@H]3CCc4nc(N5CC[C@H]6CNC[C@H]65)ccc4C3)sc2n1 [Example 216, N-[(6S)-2-[(3aS,6aS)-octahydropyrrolo[2,3-c]pyrrol-1-yl}-5,6,7,8-tetrahydroquinolin-6-yl]-3-amino-6-methylthieno[2,3-b]pyridine-2-carboxamide] | 1 to 50
Cc1ccc2c(N)c(C(=O)N[C@H]3COc4cc(N5CC[C@H]6CC[C@@H](N)C[C@H]65)ccc4C3)sc2n1 [Example 231, N-[(3R)-7-[(3aR,6R,7aR)-6-amino-octahydro-1H-indol-1-yl]-3,4-dihydro-2H-1-benzopyran-3-yl]-3-amino-6-methylthieno[2,3-b]pyridine-2-carboxamide] | 1 to 50
CO[C@H]1CN(c2cc3c(cc2C#N)C[C@@H](NC(=O)c2sc4nc(C)ccc4c2N)CO3)C[C@@H]1N [Example 177, 3-amino-N-[(3R)-7-[(3S,4S)-3-amino-4-methoxypyrrolidin-1-yl]-6-cyano-3-4-dihydro-2H-1-benzopyran-3-yl]-6-methylthieno[2,3-b]pyridine-2-carboxamide] | 1 to 50
Cc1ccc2c(N)c(C(=O)N[C@H]3COc4cc(N5CC[C@@H]6CC[C@@H](N)C[C@@H]65)ccc4C3)sc2n1 [Example 233, N-[(3R)-7-[(3aS,6R,7aS)-6-amino-octahydro-1H-indol-1-yl]-3,4-dihydro-2H-1-benzopyran-3-yl]-3-amino-6-methylthieno[2,3-b]pyridine-2-carboxamide] | 1 to 50
CO[C@H]1CN(c2ccc3c(n2)CC[C@H](NC(=O)c2sc4nc(C)ccc4c2N)C3)C[C@]1(C)N [Example 239, 3-amino-N-[(6S)-2-[(3S,4S)-3-amino-4-methoxy-3-methylpyrrolidin-1-yl]-5,6,7,8-tetrahydroquinolin-6-yl]-6-methylthieno[2,3-b]pyridine-2-carboxamide] | 200 to 2000
Cc1cc(C)c2c(N)c(C(=O)N[C@H]3COc4cc(N5CC6CCC(C5)N6)c(C#N)c(F)c4C3)sc2n1 [Example 241, 3-amino-N-[(3R)-6-cyano-7-{3,8-diazabicyclo[3.2.1]octan-3-yl}-5-fluoro-3,4-dihydro-2H-1-benzopyran-3-yl]-4,6-dimethylthieno[2,3-b]pyridine-2-carboxamide] | 1 to 50
Cc1ccc2c(N)c(C(=O)N[C@H]3COc4cc(N5CC[C@H]6CNCC[C@H]65)ccc4C3)sc2n1 [Example 235, N-[(3R)-7-[(3aS,7aR)-octahydro-1H-pyrrolo[3,2-c]pyridin-1-yl]-3,4-dihydro-2H-1-benzopyran-3-yl]-3-amino-6-methylthieno[2,3-b]pyridine-2-carboxamide] | 1 to 50
